Measured values: PubChem BioAssay (NCI)
Several values for one entry are separate records, joined by “and”; a condition that tells them apart may be missing. Equal values may be shown once.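 Where inhibition never reached the appropriate level, the endpoint shown equals the highest concentration tested. Otherwise, values were interpolated linearly from a five-concentration, 48-hour dose response in 96-well plates. GI50 is the concentration that inhibits growth by half. The concentration for full growth arrest is given as TGI.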

Columns and labels:
Test in all cases: inhibition of tumour cell growth, NCI panel, 48 h
RXF 393 renal = test system: RXF 393 renal
MCF7 breast = test system: MCF7 breast
M14 melanoma = test system: M14 melanoma
UO-31 renal = test system: UO-31 renal
U251 CNS = test system: U251 CNS
SF-539 CNS = test system: SF-539 CNS
A549 NSCLC = test system: A549 NSCLC
HCT-15 colon = test system: HCT-15 colon
A498 renal = test system: A498 renal
SK-MEL-2 melanoma = test system: SK-MEL-2 melanoma

SMILES	TGI (RXF 393 renal)	TGI (MCF7 breast)	TGI (M14 melanoma)	TGI (UO-31 renal) [µM]	TGI (U251 CNS)	TGI (SF-539 CNS)	TGI (A549 NSCLC)	TGI (HCT-15 colon)	TGI (A498 renal) [µM]	TGI (SK-MEL-2 melanoma)	GI50 (RXF 393 renal)	GI50 (MCF7 breast)	GI50 (M14 melanoma)	GI50 (UO-31 renal)	GI50 (U251 CNS)	GI50 (SF-539 CNS)	GI50 (A549 NSCLC) [µM]	GI50 (HCT-15 colon)	GI50 (A498 renal) [µM]	GI50 (SK-MEL-2 melanoma)
CCc1[nH]nc(C(N)=O)c1N=NN(C)C	> 100 µM	> 100 µM	> 100 µM	> 100	> 100 µM	> 100 µM	> 100 µM	> 100 µM	> 100	> 100 µM										
S=C1SCN(Cc2ccccc2)CN1Cc1ccccc1	6.32 µM	15.1 µM	27.8 µM	19	16.4 µM	> 61.3 µM	37.6 µM	17.1 µM	43.6	25.3 µM	1.55 µM	2.19 µM	6.5 µM	5.43 µM	5.61 µM	17.2 µM	15.4	4.13 µM	15.5	7.53 µM
O=C(c1ccccc1)C1OC1C(=O)c1ccccc1 (configuration not stated)	10.2 µM	14.7 µM	11.9 µM	85.6	37.1 µM	12.6 µM	39.2 µM	12.2 µM	> 100	9.53 µM	2.37 µM	2.34 µM	2.78 µM	8.09 µM	7.58 µM	3.77 µM	4.17	2.61 µM	19.7	2.66 µM
O=C(Nc1cn[nH]c1-c1nc2ccc(CN3CCOCC3)cc2[nH]1)NC1CC1	1.79 µM and 2.17 µM	7.37 µM and > 10 µM	4.34 µM and > 10 µM	> 24.6	11.2 µM and > 10 µM	1.35 µM and 3.7 µM	9.76 µM and > 10 µM	25.6 µM and > 10 µM	3.91	3.94 µM and > 10 µM	0.241 µM and 0.287 µM	0.522 µM and 2.07 µM	1.52 µM and 4.84 µM	0.851 µM and 2.33 µM	0.274 µM and 1.3 µM	0.262 µM and 0.688 µM		4.52 µM and > 10 µM	0.373	1.35 µM and > 10 µM
C/C(CC(C)(C)N1CC1)=N\NC(=O)Nc1cccc2ccccc12	5.46 µM	11.2 µM	15.2 µM	12.2	14.4 µM	15.7 µM	14.2 µM	17.4 µM	9.5	5.45 µM	2.08 µM	2.42 µM	4.25 µM	2.58 µM	3.52 µM	3.35 µM	3.53	3.24 µM	2.55	2.24 µM
C#Cc1cccc(NC(=O)c2cccc(NC(=O)CCl)c2)c1	29.8 µM	> 82.5 µM	> 82.5 µM	22.9	28.4 µM	24.5 µM	> 82.5 µM	19.1 µM	> 82.5	> 82.5 µM	12.7 µM	12.8 µM	32.2 µM	12 µM	12.1 µM	13 µM	21.6	5.2 µM	6.14	62.8 µM
COc1c(C)c(OC)c(C(=O)CC(C)C)c(OC)c1C	> 100 µM	> 100 µM	> 100 µM	> 100	> 100 µM	> 100 µM	> 100 µM	> 100 µM	> 100	> 100 µM										
CCCS(=O)(=O)Nc1cccc(Nc2ncnc3cc(NC(=O)CCl)ccc23)c1Cl	7.13 µM	5.92 µM	5.16 µM	7.65	1.16 µM	4.54 µM	10.1 µM	6.95 µM	11	8.92 µM	3.26 µM	1.05 µM	1.11 µM	4.06 µM	0.516 µM	1.35 µM	4.99	1.6 µM	5.47	3.58 µM
O=S(=O)(O)n1ccnc1 (tested in a mixture with another compound)	> 100 µM	> 100 µM	> 100 µM	> 100	> 100 µM	> 100 µM	> 100 µM	> 100 µM	> 100	> 100 µM										
CCN(CC)CCn1c(=O)c2cc(OC)c(OC)cc2c2ccc3cc4c(cc3c21)OCO4	17.2 µM	24.8 µM	12.7 µM	17.3	18.6 µM	0.818 µM	8.53 µM	10.3 µM	0.655	> 100 µM	0.448 µM	0.0607 µM	0.278 µM	0.405 µM	0.201 µM	0.253 µM	0.725	1.61 µM	0.15	> 100 µM
CC1OC(CC(=O)O)Cc2c1c(O)c1c(O)cc(-c3cc(=O)c4c(=O)c5c(c(=O)c=4c3=O)CC(CC(=O)O)OC5C)c(O)c1c2O (configuration not stated)	20.3 µM and 27 µM		32 µM and 75.9 µM	> 64.5	> 74 µM and 61 µM	36 µM	> 100 µM	16.7 µM	58.9	48.2 µM and 62.5 µM	12 µM	27.7 µM	24.4 µM	30.3 µM	26.1 µM	59.3 µM	53.7	61.6 µM		27.7 µM
Cc1nc2ccccc2c(/C=C/c2ccccc2)c1C(=O)/C=C/c1ccc(C(F)(F)F)cc1	3.1 µM	2.66 µM	3.94 µM	2.26	2.95 µM	3.27 µM	4.84 µM	3.28 µM	3.18	3.95 µM	1.41 µM	0.631 µM	1.6 µM	1.07 µM	1.4 µM	1.82 µM	2.03	0.721 µM	1.75	1.87 µM
CCOC(=O)Nc1ccc2c(c1)C(=O)N(CC)c1ccccc1O2	54.9 µM	> 100 µM	> 100 µM	> 100	> 100 µM	0.643 µM	> 100 µM	> 100 µM	11.8	> 100 µM	0.0277 µM	0.139 µM	0.0617 µM	0.379 µM	0.106 µM	0.0942 µM	0.145	0.0746 µM	0.0786	0.102 µM
